# Measured values published in a melting point compilation (Tetko et al.).
row,SMILES,melting point
1,Cc1cc(C(=O)O)cc(C)c1OCc1cccnc1,182 to 184 °C
2,O=C(O)CN1CCS(=O)(=O)CC1,179 to 181 °C
3,CC(NC(=O)CCl)C1CC1 (stereo not drawn),50 to 52 °C
4,Nc1nc(C(=O)Nc2ccccc2)cs1,169 to 171 °C
5,O=Cc1cn(-c2ccccc2)nc1-c1ccc(Br)cc1,141 to 143 °C
6,N=C(NN)c1cc(Cl)ccn1,248 to 250 °C
7,c1ccc2[nH]c(Cc3nc4ccccc4s3)nc2c1,194 to 196 °C
8,CCOc1cc(C=CC(=O)O)ccc1OCCOc1ccc(F)cc1,105 to 107 °C
9,CC(C)NC(=O)CN(C)CC(N)=S,140 to 142 °C
10,Cn1cc(Cl)cc1C(=O)O,129 to 131 °C
11,CC(Cc1ccc(C(F)(F)F)cc1)C(=O)O (stereo not drawn),68 to 70 °C
12,C=CCSc1nnc(N)s1,119 to 121 °C
13,C=CC(=O)NC(N)=O,169 to 171 °C
14,CCOC(=O)CNC(=O)OCC(F)(F)F,38 to 40 °C
15,O=[N+]([O-])c1ccc(Br)c2c1CNCC2,81 to 83 °C
16,Nc1nc2ccc(OCC(F)(F)F)cc2s1,134 to 136 °C
17,CC(C)NC(=O)CC1(C(=O)O)CCCC1,139 to 141 °C
18,NC(=O)C1CCCN(C(=O)CCl)C1 (stereo not drawn),124 to 126 °C
19,CC(C)OC(=O)c1ccnc(O)c1,145 to 147 °C
20,CC(=O)N1CC(C(=O)O)C1,149 to 151 °C
21,COC(=O)c1ccc(NC(=O)Oc2ccccc2)cc1,185 to 187 °C
22,O=C(O)c1ncccc1C(F)(F)F,107 to 109 °C
23,Cc1cccc(-c2nc3cc(F)ccc3[nH]2)c1O,251 to 253 °C
24,Cc1c(N)cc(C#N)cc1F,135 to 137 °C
25,Cc1cc2cc(C(=O)O)oc2cc1C,269 to 271 °C

row,SMILES,melting point
1,NC(CC(=O)O)c1cc(Cl)cc(Cl)c1 (stereo not drawn),205 to 207 °C
2,Nc1nncc(-c2cc(F)ccc2F)n1,239 to 241 °C
3,O=C(O)C1CCN(C(=O)c2ccoc2)CC1,103 to 105 °C
4,Cc1cc(NC(=O)C(C)Cl)on1 (stereo not drawn),78 to 80 °C
5,CC(C)C(NC(=O)c1ccc(Br)cc1)C(=O)O (stereo not drawn),189 to 191 °C
6,NC(=O)NCCc1cccnc1,152 to 154 °C
7,COc1cc(C(=O)O)cc(OC)c1OCC(N)=O,249 to 253 °C
8,CC(C)C(=O)N(C)Cc1ccc(C(=O)O)cc1,139 to 141 °C
9,CC(NC(N)=S)c1ccccc1 (stereo not drawn),94 to 96 °C
10,NCc1ccc(NC(=O)C(F)(F)F)cc1,106 to 108 °C
11,OC(c1ccc[nH]1)C(F)(F)F (stereo not drawn),47 to 49 °C
12,Cc1oc(-c2cnn(C)c2)nc1C(=O)O,249 to 251 °C
13,CC1(C)CC(C)(C)c2cc(O)ccc21,99 to 101 °C
14,N#CC(c1ccccc1)(c1ccc(F)cc1)c1ccc(F)cc1,74 to 76 °C
15,CNC(=O)CCCl,63 to 65 °C
16,COc1cc(CNC(=O)CCl)cc(OC)c1OC,106 to 108 °C
17,CNCC(O)CN1CCCC1=O (stereo not drawn),88 to 90 °C
18,CCc1nc(N)sc1C(=O)OC,181 to 183 °C
19,COc1ccc(NC(=O)c2ccc(Br)cc2)c(C)c1,164 to 166 °C
20,COc1cc(CN)cc(OC)c1O,149 to 151 °C
21,N#Cc1ccc(N2CCC(N)CC2)cc1,84 to 86 °C
22,O=C(CCl)Nc1cccc(Oc2ccccc2)c1,102 to 104 °C
23,N#CCc1ccccc1C(=O)O,106 to 108 °C
24,O=C(O)CSc1nccn1-c1cccc(F)c1,140 to 142 °C
25,CC(C)(C)OC(=O)N1CCCCC1(C)C(=O)O (stereo not drawn),92 to 94 °C

row,SMILES,melting point
1,O=C(OCCl)OC1CCCCC1,36 to 38 °C
2,COC(=O)CNC(=O)CCCl,59 to 61 °C
3,COc1cc(CN2CCNCC2)cc(OC)c1OC,102 to 104 °C
4,O=C(O)C(Oc1cccc(F)c1)c1ccccc1 (stereo not drawn),108 to 110 °C
5,COc1ccc(C(CNC(=O)CCl)c2c[nH]c3ccccc23)cc1 (stereo not drawn),157 to 159 °C
6,COc1ccc(-c2csc(CC#N)n2)cc1,70 to 72 °C
7,CC(Cl)C(=O)N(CCC#N)c1ccccc1 (stereo not drawn),74 to 76 °C
8,CCc1sc(N)nc1-c1ccc(OC)cc1,112 to 114 °C
9,ClCc1nnnn1-c1ccccc1,45 to 73 °C
10,O=C(O)CNC(=O)c1c[nH]c(=O)[nH]c1=O,301 to 303 °C
11,O=C(O)C1CCCCN1C(=O)C1CCCO1 (stereo not drawn),116 to 118 °C
12,CC1(C)CC(=O)C=C(N)C1,167 to 170 °C
13,COC(=O)c1nc2n(n1)CCCN2,173 to 175 °C
14,O=C(O)CN1C(=O)C2C3C=CC(C3)C2C1=O (stereo not drawn),146 to 148 °C
15,CC(=O)c1cc(F)c(N)c(F)c1,69 to 71 °C
16,Nc1ccc(OCc2ccncc2)cc1,129 to 131 °C
17,COC(=O)C1=NN(c2ccccc2)C(c2ccccc2)C1 (stereo not drawn),125 to 127 °C
18,Nc1ccc(Sc2nc3ccccc3[nH]2)cc1,224 to 226 °C
19,CCNc1nnc(S)s1,141 to 143 °C
20,Cc1ccccc1COc1ccccc1C(=O)O,103 to 105 °C
21,CN(C)Cc1cccc(NC(=O)c2nonc2N)c1,142 to 144 °C
22,NC(=NO)c1cccs1,81 to 83 °C
23,CCOC(=O)c1cc(N)[nH]n1,118 to 120 °C
24,Brc1ccccc1-c1nc2cccnc2[nH]1,196 to 198 °C

# Results, then the molecule that gave them:
row,melting point,SMILES
1,142 to 144 °C,O=C(O)c1ccc(S(=O)(=O)Cl)cc1F
2,95 to 99 °C,CCN(CC)S(=O)(=O)c1cc(N)ccc1Cl
3,130 to 132 °C,Cc1ccc(SC(C(=O)O)c2ccccc2)c(C)c1 (stereo not drawn)
4,116 to 118 °C,N#Cc1ccc(S(=O)(=O)CCCl)cc1
5,158 to 160 °C,Cc1cccc(N2C(=O)NC(CCC(=O)O)C2=O)c1 (stereo not drawn)
6,181 to 183 °C,CS(=O)Cc1cccc(C(=O)O)c1 (stereo not drawn)
7,139 to 141 °C,O=C(NCC(F)(F)F)c1ccc(S(=O)(=O)Cl)cc1
8,112 to 114 °C,Cc1ccc(N2CC(C(=O)O)CC2=O)c(F)c1 (stereo not drawn)
9,139 to 141 °C,OC1CCNCc2ccccc21 (stereo not drawn)
10,109 to 111 °C,O=C1NC(=O)C(F)(F)c2ccccc21
11,229 to 231 °C,O=C(O)c1ccc(CN2C(=O)CCC2=O)cc1
12,208 to 210 °C,O=C1CCCc2cc(S(=O)(=O)Cl)ccc2N1
13,74 to 76 °C,Cc1nc(N)sc1Cc1cccc(Cl)c1
14,230 to 232 °C,O=C(O)c1ccn(-c2cccc([N+](=O)[O-])c2)n1
15,175 to 176 °C,Nc1cc(C(F)(F)F)ccc1C(=O)O
16,246 to 248 °C,N#Cc1cc2c([nH]c1=O)CCCC2
17,129 to 131 °C,CCCc1c(C(=O)O)nnn1-c1cccc(Cl)c1
18,138 to 140 °C,COc1cc(NC(C)=O)ccc1I
19,85 to 87 °C,COc1cc([N+](=O)[O-])ccc1NC(=O)C(C)Cl (stereo not drawn)
20,230 to 232 °C,CCCn1c(=O)[nH]c(=O)c2c(C(=O)O)cc(-c3ccccc3)nc21
21,94 to 96 °C,Nc1cc(F)c(N2CCCC2)c(F)c1
22,34 to 36 °C,CCOc1cccc(F)c1[N+](=O)[O-]
23,168 to 170 °C,CC(C)N(C)S(=O)(=O)c1cccc(C(=O)O)c1

row,melting point,SMILES
1,134 to 136 °C,Cc1nc(Cl)ccc1CC(=O)O
2,138 to 140 °C,COc1ccc2c(c1)NC(=O)C(C)O2 (stereo not drawn)
3,90 to 94 °C,Cc1cc(C(=O)CCl)c(C)n1-c1cccc(F)c1
4,242 to 244 °C,NNC(=O)Cc1cc(=O)[nH]c(S)n1
5,177 to 179 °C,Nc1ccc(Cl)cc1C(=O)Nc1ccc(Cl)cn1
6,208 to 210 °C,COc1cccc(Nc2nnc(S)s2)c1
7,44 to 46 °C,SCc1c(Cl)cccc1Cl
8,139 to 141 °C,ClCc1cn(-c2ccc(Cl)cc2)nn1
9,96 to 98 °C,O=S(=O)(c1cccc(CO)c1)N1CCOCC1
10,140 to 142 °C,CC(=O)c1ccc(SCC(=O)O)c(F)c1
11,139 to 141 °C,O=c1[nH]c(CNCc2ccccc2)nc2ccccc12
12,82 to 84 °C,O=C(NCC1CCCNC1)c1ccccc1 (stereo not drawn)
13,92 to 94 °C,COc1cc(C(C)=O)ccc1SC
14,107 to 109 °C,CS(=O)c1c(N)cccc1Cl (stereo not drawn)
15,302 to 304 °C,Cn1cc(C(=O)O)c(=O)c2cc(Cl)ccc21
16,113 to 115 °C,OCc1nc2cc(Cl)ccc2s1
17,105 to 107 °C,Nc1ccc(S(=O)(=O)N2CCCCCC2)cc1
18,184 to 186 °C,CCN(CCC(=O)O)Cc1nc2c(C)cccc2c(=O)[nH]1
19,196 to 198 °C,O=C(O)c1ccc(Oc2ccccc2[N+](=O)[O-])cc1
20,52 to 54 °C,N#Cc1cccc(OC2CCNCC2)c1
21,139 to 141 °C,N#CCC(=O)Nc1cccc(Cl)c1
22,126 to 128 °C,CS(=O)(=O)Nc1ccccc1CC(=O)O
23,236 to 238 °C,O=C(O)CC1Sc2ccc(C(F)(F)F)cc2NC1=O (stereo not drawn)

row,melting point,SMILES
1,127 to 129 °C,CCOC(=O)C(=O)c1c(C)[nH]c2ccccc12
2,105 to 107 °C,CC(=O)c1ccc(S(C)=O)cc1 (stereo not drawn)
3,114 to 116 °C,Cc1nn(-c2cccc(Cl)c2)c2ncc(Br)cc12
4,211 to 213 °C,Cc1nc(O)c2c(n1)CN(Cc1ccccc1)CC2
5,111 to 113 °C,Fc1ccccc1-c1c[nH]c(C2CCCN2)n1 (stereo not drawn)
6,174 to 176 °C,Cc1cc(Cl)ccc1OCc1n[nH]c(-c2ccccn2)n1
7,103 to 105 °C,Cc1cc(Cl)n(-c2ccc(C#N)cc2)n1
8,308 to 310 °C,O=c1ccc(=O)n(-c2ccc([N+](=O)[O-])cc2)[nH]1
9,144 to 146 °C,O=C(O)C1CC1c1c(Cl)cccc1Cl (stereo not drawn)
10,71 to 73 °C,Cn1ccc2c1C(=O)NCC2
11,217 to 219 °C,CC(C)(C)NS(=O)(=O)c1cc(C(=O)O)ccc1Br
12,250 to 252 °C,Cn1ccnc1C(=O)c1cc(S)nc2ccccc12
13,148 to 150 °C,Clc1ccnc2c(Br)cccc12
14,112 to 114 °C,Nc1cccc(NS(=O)(=O)c2ccc(Cl)cc2)c1
15,118 to 120 °C,CS(=O)(=O)c1ccccc1NC(=O)CCl
16,219 to 221 °C,COc1nc2ccccc2cc1/C=C/C(=O)O
17,64 to 66 °C,N#Cc1cccc(Br)c1N=C=O
18,164 to 166 °C,Cc1nnc(S)n1Cc1ccccc1
19,151 to 153 °C,O=C1OC(C(=O)O)Cc2ccccc21 (stereo not drawn)
20,91 to 93 °C,ClCc1coc(-c2ccc(Cl)cc2)n1
21,207 to 209 °C,O=C(O)c1cc(S(=O)(=O)Nc2ccccc2F)c[nH]1
22,69 to 71 °C,OC1CCc2c(Cl)cccc21 (stereo not drawn)
23,236 to 238 °C,O=C1c2ccccc2-c2n[nH]c3cccc1c23
